Measurements: paper PMC4304843, “Human Mitochondrial Hsp70 (Mortalin): Shedding Light on ATPase Activity, Interaction with Adenosine Nucleotides, Solution Structure and Domain Organization” (PLoS ONE, 2015)

Tests used:
human Hsp70-1A = molecular target: T1, human Hsp70-1A (Homo sapiens, UniProt P0DMV8); assay: ATPase, EnzChek phosphate assay, Michaelis-Menten fit; assay type: biochemical; details: TKP buffer without phosphate pH 7.5, 2 mM Mg2+, 37°C, no co-chaperone
T1 construct: gene HSPA1A; recombinant, expressed in E. coli BL21(DE3) as previously described
T1 sequence (P0DMV8 2-641): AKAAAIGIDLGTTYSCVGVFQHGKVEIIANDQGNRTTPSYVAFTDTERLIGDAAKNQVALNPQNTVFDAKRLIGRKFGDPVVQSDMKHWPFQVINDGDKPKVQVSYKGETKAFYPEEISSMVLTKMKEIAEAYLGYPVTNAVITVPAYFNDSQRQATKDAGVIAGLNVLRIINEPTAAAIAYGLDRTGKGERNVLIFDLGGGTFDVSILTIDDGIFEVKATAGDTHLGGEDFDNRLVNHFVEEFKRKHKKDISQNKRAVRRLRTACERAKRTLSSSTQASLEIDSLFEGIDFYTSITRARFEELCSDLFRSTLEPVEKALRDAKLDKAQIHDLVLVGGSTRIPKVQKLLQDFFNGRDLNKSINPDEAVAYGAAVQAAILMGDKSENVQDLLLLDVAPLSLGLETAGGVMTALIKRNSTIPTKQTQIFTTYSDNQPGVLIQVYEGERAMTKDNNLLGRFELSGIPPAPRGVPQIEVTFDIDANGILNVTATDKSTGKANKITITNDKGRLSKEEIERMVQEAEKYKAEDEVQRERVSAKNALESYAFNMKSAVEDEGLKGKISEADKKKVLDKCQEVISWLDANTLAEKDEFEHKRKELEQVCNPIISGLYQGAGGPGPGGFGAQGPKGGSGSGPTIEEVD
Description: ATPase, EnzChek phosphate assay, Michaelis-Menten fit on human Hsp70-1A

[1] = molecular target: T2, human mortalin (mtHsp70, GRP75, HspA9, PBP74) (Homo sapiens, UniProt P38646); assay: isothermal titration calorimetry; assay type: binding
T2 construct: monomeric SEC fraction, alkaline phosphatase treated
T2 sequence (P38646 47-679): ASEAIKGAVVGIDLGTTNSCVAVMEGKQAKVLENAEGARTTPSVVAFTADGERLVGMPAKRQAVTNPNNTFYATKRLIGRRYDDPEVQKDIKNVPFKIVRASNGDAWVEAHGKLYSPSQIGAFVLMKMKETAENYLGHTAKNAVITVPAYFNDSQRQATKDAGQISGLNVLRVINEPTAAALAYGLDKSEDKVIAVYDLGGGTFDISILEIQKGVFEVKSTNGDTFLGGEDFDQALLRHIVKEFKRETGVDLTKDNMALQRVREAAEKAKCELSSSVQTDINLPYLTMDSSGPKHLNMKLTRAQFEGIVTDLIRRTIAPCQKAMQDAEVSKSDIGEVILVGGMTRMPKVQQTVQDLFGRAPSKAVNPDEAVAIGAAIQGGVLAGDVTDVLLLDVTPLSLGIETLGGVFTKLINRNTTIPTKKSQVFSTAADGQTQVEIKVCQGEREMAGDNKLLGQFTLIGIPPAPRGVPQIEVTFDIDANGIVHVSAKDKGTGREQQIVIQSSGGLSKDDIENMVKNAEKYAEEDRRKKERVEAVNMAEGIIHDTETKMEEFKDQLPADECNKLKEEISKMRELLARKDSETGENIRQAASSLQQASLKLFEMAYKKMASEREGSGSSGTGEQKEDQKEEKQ

Compound | Km (human Hsp70-1A) [µM] | Kd [1] [µM]
Nc1ncnc2c1ncn2[C@@H]1O[C@H](COP(=O)(O)OP(=O)(O)OP(=O)(O)O)[C@@H](O)[C@H]1O [ATP] | 270 ± 40 | 1.1 ± 0.1
Nc1ncnc2c1ncn2[C@@H]1O[C@H](COP(=O)(O)OP(=O)(O)O)[C@@H](O)[C@H]1O [ADP] | – | 2.2 ± 0.1
